Data from the supplement of paper PMC10307832.

Assays:
Assay in all cases: relative viability (nuclei count vs DMSO), 5 days (fraction); higher = more cells survive
[1] = compound: CO[C@H]1C[C@@H]2CC[C@@H](C)[C@@](O)(O2)C(=O)C(=O)N2CCCC[C@H]2C(=O)O[C@H]([C@H](C)C[C@@H]2CC[C@@H](OCCO)[C@H](OC)C2)CC(=O)[C@H](C)/C=C(\C)[C@@H](O)[C@@H](OC)C(=O)[C@H](C)C[C@H](C)/C=C/C=C/C=C/1C [Everolimus] + Cc1nc(Nc2ncc(C(=O)Nc3c(C)cccc3Cl)s2)cc(N2CCN(CCO)CC2)n1 [Dasatinib] (partner 0.075 µM)
How it was run: (§1)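 Cells from lung cancer lines were seeded into 1536-well plates and, one day later, dosed by pin tool. Treatments were either a single drug or a fixed dose of an anchor drug with five library-drug doses (not always all listed) in √10 steps. After 5 days, nuclei were stained in a one-step fixation (final 0.05% Triton X-100, 1% formaldehyde, 1 ug/ml Hoechst) and counted on 4× images, and relative viability is the treated-to-vehicle nuclei ratio, as the median of duplicate plates.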

[2] = compound: CO[C@H]1C[C@@H]2CC[C@@H](C)[C@@](O)(O2)C(=O)C(=O)N2CCCC[C@H]2C(=O)O[C@H]([C@H](C)C[C@@H]2CC[C@@H](OCCO)[C@H](OC)C2)CC(=O)[C@H](C)/C=C(\C)[C@@H](O)[C@@H](OC)C(=O)[C@H](C)C[C@H](C)/C=C/C=C/C=C/1C [Everolimus] + O=C(CCCCCCC(=O)Nc1ccccc1)NO [Vorinostat] (partner 1 µM)
How it was run: as §1

[3] = compound: CO[C@H]1C[C@@H]2CC[C@@H](C)[C@@](O)(O2)C(=O)C(=O)N2CCCC[C@H]2C(=O)O[C@H]([C@H](C)C[C@@H]2CC[C@@H](OCCO)[C@H](OC)C2)CC(=O)[C@H](C)/C=C(\C)[C@@H](O)[C@@H](OC)C(=O)[C@H](C)C[C@H](C)/C=C/C=C/C=C/1C [Everolimus] + CS(=O)(=O)N1CCN(Cc2cc3nc(-c4cccc5[nH]ncc45)nc(N4CCOCC4)c3s2)CC1 [Pictilisib] (partner 1 µM)
How it was run: as §1

[4] = compound: CO[C@H]1C[C@@H]2CC[C@@H](C)[C@@](O)(O2)C(=O)C(=O)N2CCCC[C@H]2C(=O)O[C@H]([C@H](C)C[C@@H]2CC[C@@H](OCCO)[C@H](OC)C2)CC(=O)[C@H](C)/C=C(\C)[C@@H](O)[C@@H](OC)C(=O)[C@H](C)C[C@H](C)/C=C/C=C/C=C/1C [Everolimus] + C[C@@H](Oc1cc(-c2cnn(C3CCNCC3)c2)cnc1N)c1c(Cl)ccc(F)c1Cl [Crizotinib] (partner 1 µM)
How it was run: as §1

Cell Line	relative viability ([1]; first compound 0.01 µM)	relative viability ([1]; first compound 0.03162 µM)	relative viability ([1]; first compound 0.1 µM)	relative viability ([1]; first compound 0.3162 µM)	relative viability ([1]; first compound 1 µM)	relative viability ([2]; first compound 0.01 µM)	relative viability ([2]; first compound 0.03162 µM)	relative viability ([2]; first compound 0.1 µM)	relative viability ([2]; first compound 0.3162 µM)	relative viability ([2]; first compound 1 µM)	relative viability ([3]; first compound 0.01 µM)	relative viability ([3]; first compound 0.03162 µM)	relative viability ([3]; first compound 0.1 µM)	relative viability ([3]; first compound 0.3162 µM)	relative viability ([3]; first compound 1 µM)	relative viability ([4]; first compound 0.01 µM)	relative viability ([4]; first compound 0.03162 µM)	relative viability ([4]; first compound 0.1 µM)	relative viability ([4]; first compound 0.3162 µM)	relative viability ([4]; first compound 1 µM)
LCLC-97TM1	0.929	0.851	0.932	0.836	0.917	0.62	0.616	0.688	0.659	0.379	0.126	0.123	0.128	0.135	0.144	0.406	0.28	0.485	0.291	0.216
NCI-H522	0.776	0.624	0.629	0.71	0.724	0.788	0.784	0.589	0.726	0.731										
NCI-H1299											0.54	0.537	0.512	0.386	0.528	0.953	0.967	0.968	0.936	1.09
NCI-H1395	0.345	0.396	0.395	0.358	0.336	0.549	0.33	0.505	0.478	0.58	0.571	0.548	0.508	0.5	0.496					
NCI-H1563	0.434	0.419	0.462	0.464	0.437						0.664	0.672	0.632	0.676	0.646	0.673	0.654	0.682	0.684	0.692
NCI-H1648						0.422	0.383	0.307	0.423	0.406										
NCI-H1703											0.208	0.24	0.306	0.228	0.25	0.344	0.316	0.276	0.395	0.454
NCI-H1792	0.732	0.435	0.562	0.518	0.484						0.189	0.14	0.121	0.148	0.105	0.865	0.769	0.724	0.583	0.644
NCI-H1793	0.23	0.256	0.209	0.214	0.162	0.344	0.288	0.322	0.356	0.251	0.225	0.222	0.141	0.237	0.19					
NCI-H2342	0.274	0.323	0.277	0.262	0.319	0.559	0.438	0.524	0.56	0.633										
SW 900	0.571	0.345	0.34	0.45	0.335	0.41	0.301	0.339	0.37	0.266										
